{"source": "patent US20110065663A1", "about": "“ANTI-CANCER COMBINATION THERAPY” (Katholieke Universiteit Leuven, K.U. Leuven R&D, priority 2008, published 2011)", "assay_type_in_all_cases": "cell-based, human", "key": {"MCF-7 cells [1]": {"test_system": "MCF-7 cells", "assay": "Tumor cell proliferation assay, uninfected MCF-7 cells", "conditions": "for IC50: Homo sapiens, uninfected MCF-7", "experimental": "MCF-7 and MCF-7/HYOR cells were seeded in 48-well plates at 10,000 cells/cm^2. […] of the test compounds (5FU, 5′DFUR, CIdUrd, BrdUrd, IdUrd and TFT) with or without 10 μM TPi were added. The cells were incubated for another 4 days, trypsinized and counted by a Coulter counter (Analis, Suarlée, Belgium). In some experiments, the antibiotic plasmocin was added one or three days before addition of the test compounds."}, "MCF-7/HYOR cells [2]": {"test_system": "MCF-7/HYOR cells", "assay": "Tumor cell proliferation assay, M. hyorhinis-infected MCF-7 cells", "conditions": "for IC50: Homo sapiens, MCF7, M. hyorhinis-infected MCF-7", "experimental": "Mycoplasma hyorhinis (ATCC 17981) was obtained from the American Type Culture Collection (ATCC, Manassas, Va.). The freeze-dried bacteria were reconstituted by adding 1 ml of DMEM. […] The co-culture of MCF-7 cells and M. hyorhinis was maintained under the same conditions as the uninfected MCF-7 cells. […] The cells were incubated for another 4 days, trypsinized and counted by a Coulter counter (Analis, Suarlée, Belgium)."}, "MCF-7/HYOR cell cultures": {"test_system": "MCF-7/HYOR cell cultures", "assay": "Nucleoside metabolism experiments, distribution of drug-derived radiolabel in MCF-7/HYOR cell cultures", "conditions": "24 h; 1 μCi; FIG. 5", "experimental": "Next, the cells were trypsinized, transferred to Eppendorf tubes and centrifuged for 10 minutes at 1,400 rpm. The pellet was resuspended in 1 ml absolute ice-cold methanol and kept on ice for 20 minutes. After centrifugation for 20 minutes at 13,000 rpm the pellet was washed twice with methanol, resuspended in methanol and transferred to scintillation vials containing 9 ml of Ready safe liquid scintillation reagent (‘Hisafe 3’, Perkin Elmer, Waltham, Mass.). The radioactivity was measured by a Liquid scintillation analyzer (2300 TR, Packard, Canberra, Australia). […] Next, the cells were incubated in 0.5 ml absolute ice-cold methanol and kept on ice for 20 minutes. After centrifugation for 20 minutes at 13,000 rpm, the supernatant was subjected to HPLC analysis. […] The amount of compound incorporated into nucleic acids was measured as described above."}, "OST.TK^− cells": {"test_system": "OST.TK^− cells", "assay": "Cytostatic activity in M. hyorhinis-infected osteosarcoma cells"}, "MDA-MB-231 cells": {"test_system": "MDA-MB-231 cells", "assay": "Cytostatic activity in M. hyorhinis-infected MDA-MB-231 breast carcinoma cells"}, "MCF-7 cells [3]": {"test_system": "MCF-7 cells", "assay": "Flow cytometry, cell cycle arrest in MCF-7 cells"}, "MCF-7/HYOR cells [4]": {"test_system": "MCF-7/HYOR cells", "assay": "Flow cytometry, cell cycle arrest in MCF-7/HYOR cells"}, "MCF-7 cells [5]": {"test_system": "MCF-7 cells", "assay": "Gemcitabine metabolite distribution in MCF-7 cells (HPLC)", "conditions": "24 h; 1 μCi; FIG. 5", "experimental": "MCF-7 and MCF-7/HYOR cells were seeded and treated with 1 μCi of nucleoside with and without TPi as described above. […] Next, the cells were incubated in 0.5 ml absolute ice-cold methanol and kept on ice for 20 minutes. After centrifugation for 20 minutes at 13,000 rpm, the supernatant was subjected to HPLC analysis. The nucleobases, nucleosides and nucleotides in the supernatant were separated by a Partisphere 10 SAX anion exchange column (Whatmann International Ltd., Maidstone, England) as described earlier (Balzarini J. et al., AIDS 2002; 16:2159-63), while the nucleobases and nucleosides present in the collected medium were separated using an RP-8 column. The amount of compound incorporated into nucleic acids was measured as described above."}, "[6]": {"conditions": "IC50 in the absence of TPi to IC50 in the presence of TPi"}}, "note": "Where “and” joins values, the source holds several entries; their conditions need not be identical. Equal entries are not always repeated. Where two headings read alike, the source gives them in different places.", "data": [{"smiles": "Nc1ccn([C@@H]2O[C@H](CO)[C@@H](O)C2(F)F)c(=O)n1", "note": "[gemcitabine, 2′,2′-difluorodeoxycytidine]", "values": [{"measurement": "IC50", "setting": "MCF-7 cells [1]; MCF7, 96 h, no TPi, 4 days, read-out: IC50 MCF-7 As such", "value": "7.3 ± 3.6", "unit": "nM"}, {"measurement": "IC50", "setting": "MCF-7 cells [1]; MCF7, with 10 μM TPi, read-out: IC50 MCF-7 +TPi (10 μM)", "value": "6.3 ± 2.2", "unit": "nM"}, {"measurement": "Ratio (1)/(2) MCF-7", "setting": "MCF-7 cells [1]; [6]", "value": 1.2}, {"measurement": "IC50", "setting": "MCF-7/HYOR cells [2]; no TPi, no plasmocin, read-out: IC50 MCF-7/HYOR As such", "value": "80 ± 28", "unit": "nM"}, {"measurement": "IC50", "setting": "MCF-7/HYOR cells [2]; with 10 μM TPi, read-out: IC50 MCF-7/HYOR +TPi (10 μM)", "value": "5.8 ± 1.2", "unit": "nM"}, {"measurement": "Ratio (1)/(2) MCF-7/HYOR", "setting": "MCF-7/HYOR cells [2]; [6]", "value": 14}, {"measurement": "Reduction of cytostatic activity in infected MCF-7/HYOR compared to control MCF-7 cells", "setting": "MCF-7/HYOR cells [2]; M. hyorhinis infection", "value": "10 fold and 14 fold"}, {"measurement": "Anti-proliferative activity in MCF-7/HYOR after three days pre-incubation with doxycycline", "setting": "MCF-7/HYOR cells [2]; doxycycline, 3 days", "value": "restores"}, {"measurement": "Anti-proliferative activity in MCF-7/HYOR after three days pre-incubation with plasmocin", "setting": "MCF-7/HYOR cells [2]; plasmocin 25 μg/ml, 3 days", "value": "restores"}, {"measurement": "Active (phosphorylated) metabolites of gemcitabine in M. hyorhinis infected MCF-7 cells", "setting": "MCF-7/HYOR cell cultures", "value": "no active metabolite can be detected"}, {"measurement": "Reduction in the cytostatic activity upon M. hyorhinis infection", "setting": "OST.TK^− cells", "value": 70, "unit": "fold"}, {"measurement": "Reduction in the cytostatic activity upon M. hyorhinis infection", "setting": "MDA-MB-231 cells", "value": 40, "unit": "fold"}, {"measurement": "Concentration causing cell cycle arrest in the S-phase", "setting": "MCF-7 cells [3]", "value": 0.2, "unit": "µM"}, {"measurement": "Higher concentration needed to cause a similar S-phase arrest than in MCF-7", "setting": "MCF-7/HYOR cells [4]", "value": 25, "unit": "fold"}, {"measurement": "Activation (phosphorylation) of gemcitabine in MCF-7 cells", "setting": "MCF-7 cells [5]", "value": "readily activated"}]}]}
